Active and inactive are the calls of the source.
Legend:
[1] = target: Uncharacterized aarF domain-containing protein kinase 5 (Homo sapiens, UniProt Q3MIX3)
[2] = target: T1, Ephrin type-A receptor 1 (Homo sapiens, UniProt P21709)
T1 sequence (P21709 whole entry): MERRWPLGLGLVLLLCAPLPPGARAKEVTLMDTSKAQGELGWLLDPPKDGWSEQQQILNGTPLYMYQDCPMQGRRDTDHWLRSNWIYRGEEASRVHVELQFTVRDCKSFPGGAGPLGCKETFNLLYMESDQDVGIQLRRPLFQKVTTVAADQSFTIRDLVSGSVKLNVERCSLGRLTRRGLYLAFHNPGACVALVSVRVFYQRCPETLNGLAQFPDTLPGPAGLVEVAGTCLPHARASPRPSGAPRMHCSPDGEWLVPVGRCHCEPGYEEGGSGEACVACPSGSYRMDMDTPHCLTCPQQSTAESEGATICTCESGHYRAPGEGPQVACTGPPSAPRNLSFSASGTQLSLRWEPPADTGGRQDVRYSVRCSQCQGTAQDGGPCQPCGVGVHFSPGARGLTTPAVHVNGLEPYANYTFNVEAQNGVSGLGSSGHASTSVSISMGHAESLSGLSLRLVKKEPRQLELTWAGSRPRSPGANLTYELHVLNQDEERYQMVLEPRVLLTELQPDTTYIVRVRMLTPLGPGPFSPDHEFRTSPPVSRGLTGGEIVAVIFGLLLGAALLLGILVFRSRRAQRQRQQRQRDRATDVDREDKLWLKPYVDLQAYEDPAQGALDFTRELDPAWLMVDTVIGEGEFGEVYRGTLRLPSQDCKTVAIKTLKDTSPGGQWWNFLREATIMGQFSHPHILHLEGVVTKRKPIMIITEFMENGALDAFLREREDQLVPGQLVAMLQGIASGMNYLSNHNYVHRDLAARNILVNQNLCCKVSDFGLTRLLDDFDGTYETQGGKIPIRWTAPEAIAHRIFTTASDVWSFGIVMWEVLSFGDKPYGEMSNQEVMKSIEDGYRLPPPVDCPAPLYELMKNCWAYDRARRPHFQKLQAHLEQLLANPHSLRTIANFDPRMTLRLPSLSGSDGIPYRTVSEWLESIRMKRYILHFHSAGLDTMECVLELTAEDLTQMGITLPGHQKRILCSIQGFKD

[3] = target: Ephrin type-A receptor 7 (Homo sapiens, UniProt Q15375)
[4] = target: Serine/threonine-protein kinase Nek7 (Homo sapiens, UniProt Q8TDX7)
[5] = target: Membrane-associated progesterone receptor component 1 (Homo sapiens, UniProt O00264)
[6] = target: T2, Thyroid hormone receptor-associated protein 3 (Homo sapiens, UniProt Q9Y2W1)
T2 sequence (Q9Y2W1 whole entry): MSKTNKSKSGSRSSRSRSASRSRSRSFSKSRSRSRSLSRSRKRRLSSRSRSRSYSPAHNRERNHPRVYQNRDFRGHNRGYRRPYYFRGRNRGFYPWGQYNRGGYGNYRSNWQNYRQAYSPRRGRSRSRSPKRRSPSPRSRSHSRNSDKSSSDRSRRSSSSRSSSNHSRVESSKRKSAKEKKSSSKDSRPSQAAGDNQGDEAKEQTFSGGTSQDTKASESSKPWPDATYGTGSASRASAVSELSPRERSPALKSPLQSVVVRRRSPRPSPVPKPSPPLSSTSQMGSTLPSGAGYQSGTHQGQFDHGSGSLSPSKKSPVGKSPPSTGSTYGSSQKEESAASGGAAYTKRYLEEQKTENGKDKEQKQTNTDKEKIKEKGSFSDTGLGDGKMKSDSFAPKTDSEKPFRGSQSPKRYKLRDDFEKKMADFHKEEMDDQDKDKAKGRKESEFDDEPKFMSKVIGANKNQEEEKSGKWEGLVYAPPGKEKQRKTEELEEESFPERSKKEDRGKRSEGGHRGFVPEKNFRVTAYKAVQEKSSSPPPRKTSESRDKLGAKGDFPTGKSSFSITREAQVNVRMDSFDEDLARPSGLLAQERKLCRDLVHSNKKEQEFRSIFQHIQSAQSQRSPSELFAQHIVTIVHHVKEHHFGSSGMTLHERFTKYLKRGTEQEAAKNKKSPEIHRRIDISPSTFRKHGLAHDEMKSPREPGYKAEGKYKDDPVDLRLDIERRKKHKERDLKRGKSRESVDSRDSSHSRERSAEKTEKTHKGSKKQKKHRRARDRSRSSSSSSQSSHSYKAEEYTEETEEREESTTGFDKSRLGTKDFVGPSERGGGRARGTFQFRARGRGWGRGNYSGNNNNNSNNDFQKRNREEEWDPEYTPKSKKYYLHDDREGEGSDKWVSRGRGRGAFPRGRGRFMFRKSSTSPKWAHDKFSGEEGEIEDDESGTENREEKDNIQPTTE

[7] = target: High affinity nerve growth factor receptor (Homo sapiens, UniProt P04629)
[8] = target: Protein kinase C theta type (Homo sapiens, UniProt Q04759)
[9] = target: Dual specificity testis-specific protein kinase 1 (Homo sapiens, UniProt Q15569)
[10] = target: Serine/threonine-protein kinase PAK 6 (Homo sapiens, UniProt Q9NQU5)

Measured: Kd
Further: in the data inactive means no Kd found up to 30 µM.

Chain of Dual specificity testis-specific protein kinase 1 (Q15569 whole entry): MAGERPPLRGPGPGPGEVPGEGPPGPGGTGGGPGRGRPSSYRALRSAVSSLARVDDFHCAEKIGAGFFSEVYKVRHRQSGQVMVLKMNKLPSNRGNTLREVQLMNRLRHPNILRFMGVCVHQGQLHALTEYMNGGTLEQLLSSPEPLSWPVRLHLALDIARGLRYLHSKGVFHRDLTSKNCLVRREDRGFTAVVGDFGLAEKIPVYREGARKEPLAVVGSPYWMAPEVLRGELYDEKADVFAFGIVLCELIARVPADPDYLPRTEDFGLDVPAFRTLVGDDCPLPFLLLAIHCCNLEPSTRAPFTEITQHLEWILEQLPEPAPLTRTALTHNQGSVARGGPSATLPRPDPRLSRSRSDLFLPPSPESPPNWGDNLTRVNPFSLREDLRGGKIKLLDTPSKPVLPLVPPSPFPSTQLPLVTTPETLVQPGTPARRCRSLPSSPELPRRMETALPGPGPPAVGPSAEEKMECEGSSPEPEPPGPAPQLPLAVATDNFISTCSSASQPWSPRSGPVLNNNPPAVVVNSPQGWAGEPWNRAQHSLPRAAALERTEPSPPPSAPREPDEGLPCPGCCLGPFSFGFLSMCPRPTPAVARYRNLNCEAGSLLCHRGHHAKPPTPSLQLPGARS
Chain of Serine/threonine-protein kinase PAK 6 (Q9NQU5 whole entry): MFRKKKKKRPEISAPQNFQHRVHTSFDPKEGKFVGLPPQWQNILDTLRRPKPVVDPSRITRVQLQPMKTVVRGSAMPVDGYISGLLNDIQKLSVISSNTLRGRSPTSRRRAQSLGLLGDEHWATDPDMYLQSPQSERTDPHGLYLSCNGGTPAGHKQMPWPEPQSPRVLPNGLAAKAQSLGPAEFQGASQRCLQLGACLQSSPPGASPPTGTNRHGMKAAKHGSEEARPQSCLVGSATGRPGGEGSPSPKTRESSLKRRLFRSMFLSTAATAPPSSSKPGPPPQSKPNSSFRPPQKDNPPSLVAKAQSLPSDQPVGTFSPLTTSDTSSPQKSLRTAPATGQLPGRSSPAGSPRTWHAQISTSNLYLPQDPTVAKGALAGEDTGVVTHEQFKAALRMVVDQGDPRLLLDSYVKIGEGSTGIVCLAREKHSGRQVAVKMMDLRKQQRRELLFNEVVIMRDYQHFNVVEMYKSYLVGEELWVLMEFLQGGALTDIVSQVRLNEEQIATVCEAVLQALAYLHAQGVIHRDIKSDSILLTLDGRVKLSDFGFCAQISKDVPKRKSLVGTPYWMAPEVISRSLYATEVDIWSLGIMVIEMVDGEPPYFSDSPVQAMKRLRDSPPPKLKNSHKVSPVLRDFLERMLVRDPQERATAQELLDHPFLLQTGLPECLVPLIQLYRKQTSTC
Chain of Serine/threonine-protein kinase Nek7 (Q8TDX7 whole entry): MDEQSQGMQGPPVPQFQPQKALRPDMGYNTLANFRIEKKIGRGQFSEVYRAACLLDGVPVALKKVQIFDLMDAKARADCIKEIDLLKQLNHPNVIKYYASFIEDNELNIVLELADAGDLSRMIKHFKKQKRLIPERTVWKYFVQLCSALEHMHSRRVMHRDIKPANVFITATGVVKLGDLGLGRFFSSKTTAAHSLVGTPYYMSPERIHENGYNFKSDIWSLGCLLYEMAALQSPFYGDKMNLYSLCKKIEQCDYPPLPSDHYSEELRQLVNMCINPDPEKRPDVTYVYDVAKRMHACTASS
Chain of High affinity nerve growth factor receptor (P04629 whole entry): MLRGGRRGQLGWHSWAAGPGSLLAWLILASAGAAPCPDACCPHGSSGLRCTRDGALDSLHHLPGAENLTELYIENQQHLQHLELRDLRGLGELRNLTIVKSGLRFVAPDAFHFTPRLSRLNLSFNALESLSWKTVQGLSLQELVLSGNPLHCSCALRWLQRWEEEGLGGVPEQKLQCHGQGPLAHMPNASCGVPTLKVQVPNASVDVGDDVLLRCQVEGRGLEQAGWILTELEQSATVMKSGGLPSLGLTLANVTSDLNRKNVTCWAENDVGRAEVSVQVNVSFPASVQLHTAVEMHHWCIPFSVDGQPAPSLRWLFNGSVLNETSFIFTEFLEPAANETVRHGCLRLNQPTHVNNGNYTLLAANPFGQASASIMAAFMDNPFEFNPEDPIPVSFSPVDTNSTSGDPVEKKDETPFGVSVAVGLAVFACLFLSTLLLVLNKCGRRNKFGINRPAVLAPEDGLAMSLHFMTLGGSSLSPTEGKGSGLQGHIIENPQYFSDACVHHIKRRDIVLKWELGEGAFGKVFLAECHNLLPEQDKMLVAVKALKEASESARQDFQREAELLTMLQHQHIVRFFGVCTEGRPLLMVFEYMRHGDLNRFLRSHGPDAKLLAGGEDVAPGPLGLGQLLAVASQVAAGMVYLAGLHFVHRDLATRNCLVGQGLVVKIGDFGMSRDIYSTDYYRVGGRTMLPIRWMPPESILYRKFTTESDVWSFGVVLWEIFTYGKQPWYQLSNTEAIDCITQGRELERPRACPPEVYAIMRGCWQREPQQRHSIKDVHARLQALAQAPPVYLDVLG
Chain of Uncharacterized aarF domain-containing protein kinase 5 (Q3MIX3 whole entry, the tested form may be a part): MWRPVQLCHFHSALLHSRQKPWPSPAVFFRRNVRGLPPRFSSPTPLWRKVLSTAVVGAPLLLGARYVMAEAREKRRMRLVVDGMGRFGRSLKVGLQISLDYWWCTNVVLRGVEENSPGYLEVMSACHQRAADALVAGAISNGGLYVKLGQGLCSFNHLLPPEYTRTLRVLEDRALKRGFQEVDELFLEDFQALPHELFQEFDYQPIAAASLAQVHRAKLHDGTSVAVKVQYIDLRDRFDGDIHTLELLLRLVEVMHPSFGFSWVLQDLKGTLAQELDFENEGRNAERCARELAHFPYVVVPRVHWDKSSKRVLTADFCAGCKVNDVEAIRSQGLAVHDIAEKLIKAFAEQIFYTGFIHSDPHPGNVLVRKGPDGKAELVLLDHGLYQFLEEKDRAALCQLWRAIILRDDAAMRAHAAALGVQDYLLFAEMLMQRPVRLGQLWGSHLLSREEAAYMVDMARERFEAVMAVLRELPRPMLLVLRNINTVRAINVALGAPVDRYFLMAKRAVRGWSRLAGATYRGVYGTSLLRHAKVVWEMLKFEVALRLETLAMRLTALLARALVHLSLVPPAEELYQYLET
Chain of Membrane-associated progesterone receptor component 1 (O00264 whole entry): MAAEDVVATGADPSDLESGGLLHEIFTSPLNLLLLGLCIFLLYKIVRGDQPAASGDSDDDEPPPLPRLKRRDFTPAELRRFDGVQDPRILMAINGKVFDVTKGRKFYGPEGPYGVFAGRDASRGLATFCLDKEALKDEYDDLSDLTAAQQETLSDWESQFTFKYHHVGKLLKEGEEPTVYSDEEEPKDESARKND
Chain of Protein kinase C theta type (Q04759 whole entry): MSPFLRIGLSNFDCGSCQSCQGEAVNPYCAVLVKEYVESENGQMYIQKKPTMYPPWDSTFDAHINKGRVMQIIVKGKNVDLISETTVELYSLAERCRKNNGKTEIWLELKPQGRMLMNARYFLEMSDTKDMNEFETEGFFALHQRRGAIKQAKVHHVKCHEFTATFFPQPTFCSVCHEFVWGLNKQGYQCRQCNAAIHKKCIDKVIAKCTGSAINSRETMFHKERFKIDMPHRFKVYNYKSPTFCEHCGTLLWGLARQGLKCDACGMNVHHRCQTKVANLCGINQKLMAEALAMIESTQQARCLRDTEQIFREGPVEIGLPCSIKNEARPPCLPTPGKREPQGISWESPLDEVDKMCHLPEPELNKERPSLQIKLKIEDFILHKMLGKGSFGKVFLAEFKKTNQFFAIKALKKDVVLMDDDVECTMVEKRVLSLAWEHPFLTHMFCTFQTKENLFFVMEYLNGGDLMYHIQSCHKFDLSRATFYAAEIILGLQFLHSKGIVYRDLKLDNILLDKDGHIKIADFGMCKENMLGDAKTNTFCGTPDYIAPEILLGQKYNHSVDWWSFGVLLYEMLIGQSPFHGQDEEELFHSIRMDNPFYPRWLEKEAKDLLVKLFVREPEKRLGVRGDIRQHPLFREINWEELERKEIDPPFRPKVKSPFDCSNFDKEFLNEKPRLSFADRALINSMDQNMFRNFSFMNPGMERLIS
Chain of Ephrin type-A receptor 7 (Q15375 whole entry): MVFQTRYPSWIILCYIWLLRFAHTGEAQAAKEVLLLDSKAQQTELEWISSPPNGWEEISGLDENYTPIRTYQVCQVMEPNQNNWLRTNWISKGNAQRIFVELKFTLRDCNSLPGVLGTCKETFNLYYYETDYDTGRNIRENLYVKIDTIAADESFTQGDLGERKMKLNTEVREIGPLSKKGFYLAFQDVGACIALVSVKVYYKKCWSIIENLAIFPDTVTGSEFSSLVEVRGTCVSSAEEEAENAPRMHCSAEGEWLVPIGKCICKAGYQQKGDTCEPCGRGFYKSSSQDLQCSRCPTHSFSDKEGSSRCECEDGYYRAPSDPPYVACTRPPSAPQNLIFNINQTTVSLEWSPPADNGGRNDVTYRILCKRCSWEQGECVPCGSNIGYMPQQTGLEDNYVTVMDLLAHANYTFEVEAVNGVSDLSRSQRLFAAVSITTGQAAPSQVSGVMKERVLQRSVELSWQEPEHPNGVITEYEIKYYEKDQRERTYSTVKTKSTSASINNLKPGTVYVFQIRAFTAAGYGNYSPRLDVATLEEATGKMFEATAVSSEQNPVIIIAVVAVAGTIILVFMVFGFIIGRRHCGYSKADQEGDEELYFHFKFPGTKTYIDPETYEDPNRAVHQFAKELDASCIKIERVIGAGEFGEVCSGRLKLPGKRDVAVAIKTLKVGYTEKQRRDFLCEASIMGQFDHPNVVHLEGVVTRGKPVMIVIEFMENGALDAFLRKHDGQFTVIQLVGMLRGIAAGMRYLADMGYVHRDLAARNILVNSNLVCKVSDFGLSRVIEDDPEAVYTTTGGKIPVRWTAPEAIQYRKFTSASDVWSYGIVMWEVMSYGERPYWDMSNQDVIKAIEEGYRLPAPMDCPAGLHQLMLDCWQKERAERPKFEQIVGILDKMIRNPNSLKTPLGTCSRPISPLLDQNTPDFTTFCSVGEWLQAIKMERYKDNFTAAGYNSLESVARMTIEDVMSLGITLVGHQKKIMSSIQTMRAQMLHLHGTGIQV

O=C(Nc1cccc(Cl)c1)Nc1ncc(CCNc2ncnc3ccsc23)s1 [SNS-314]
inactive: [1] > 30 µM | [2] > 30 µM | [3] > 30 µM | [4] > 30 µM | [5] > 30 µM | [6] > 30 µM

Cc1c(F)cc(C(=O)NC2CC2)cc1-c1ccc(C(=O)NCC(C)(C)C)cn1 [LOSMAPIMOD]
inactive: [2] > 30 µM | [3] > 30 µM | [7] > 30 µM | [8] > 30 µM | [9] > 30 µM

Cc1cc(Nc2cc(N3CCN(C)CC3)nc(/C=C/c3ccccc3)n2)n[nH]1 [ENMD-2076]
inactive: [1] > 30 µM | [10] > 30 µM | [5] > 30 µM | [9] > 30 µM | [6] > 30 µM

CNC(=O)c1ccc(C)c(-n2c(C)cc(OCc3ccc(F)cc3F)c(Br)c2=O)c1 [PH-797804]
inactive: [1] > 30 µM | [2] > 30 µM | [10] > 30 µM | [5] > 30 µM | [9] > 30 µM

Cc1nc(N)sc1-c1ccnc(Nc2ccc(N3CCOCC3)cc2)n1 [CYC-116]
inactive: [4] > 30 µM | [5] > 30 µM | [6] > 30 µM

C[C@@H](Nc1cc(F)cc(F)c1)c1cc(C(=O)N(C)C)cc2c(=O)cc(N3CCOCC3)oc12 [AZD-8186]
inactive: [2] > 30 µM | [3] > 30 µM | [7] > 30 µM | [10] > 30 µM | [9] > 30 µM

N[C@@H]1CCCN(c2c(/C=C3\SC(=O)NC3=O)cccc2-c2ccccc2)C1
inactive: [1] > 30 µM | [3] > 30 µM | [7] > 30 µM | [5] > 30 µM

Cn1ncc(Cl)c1-c1cc(C(=O)N[C@H](CN)Cc2cccc(F)c2)sc1Cl [AFURESERTIB]
inactive: [2] > 30 µM | [3] > 30 µM | [4] > 30 µM | [7] > 30 µM | [10] > 30 µM | [5] > 30 µM | [8] > 30 µM | [9] > 30 µM

C1=C/COCc2cc(ccc2OCCN2CCCC2)Nc2nccc(n2)-c2cccc(c2)COC/1 [PACRITINIB]
inactive: [3] > 30 µM | [7] > 30 µM | [6] > 30 µM

Cn1cc(-c2ccc(F)c(C(F)(F)F)c2)nc1C1CCN(c2ncnc3[nH]ncc23)CC1 [LY-2584702]
inactive: [2] > 30 µM | [3] > 30 µM | [7] > 30 µM | [5] > 30 µM | [8] > 30 µM | [9] > 30 µM | [6] > 30 µM

CCN1CCN(Cc2ccc(-c3cc4c(N[C@H](C)c5ccccc5)ncnc4[nH]3)cc2)CC1 [AEE-788]
inactive: [1] > 30 µM | [2] > 30 µM | [3] > 30 µM | [4] > 30 µM | [7] > 30 µM | [10] > 30 µM | [8] > 30 µM | [9] > 30 µM | [6] > 30 µM

CN1N=C(N)c2cn([C@@H]3O[C@H](COP(=O)(O)O)[C@@H](O)[C@H]3O)c3ncnc1c23 [TRICIRIBINE PHOSPHATE]
inactive: [2] > 30 µM | [4] > 30 µM | [7] > 30 µM | [5] > 30 µM | [8] > 30 µM | [6] > 30 µM

From ChEMBL document CHEMBL3991601, “The target landscape of clinical kinase drugs” (Science, 2017)
